Experimental data as given in patent US8974823B2, “Solid compositions of low-solubility drugs and poloxamers” (Bend Research, Inc., priority 2003, dated 2015).

Tests used:
Format in all cases: physicochemical
[1] = in vitro dissolution test of Drug 1 compositions in Model Fasted Duodenal solution; conditions: for AUC: MFD solution; for AUC / Drug 1 Concentration: 2000 μg/mL if all dissolved; for Drug 1 Concentration: MFD solution pH 6.5, 37° C.
Experimental: (§1) The solid compositions of Examples 1-2 were evaluated in an in vitro dissolution test to ascertain concentration enhancement of Drug 1. A […] sample of each solid composition was added in duplicate to a microcentrifuge tube, so that the total concentration of Drug 1 would have been 2000 μg/mL if all of the drug had dissolved. The tubes were placed in a 37° C. temperature-controlled chamber, and 1.8 mL PBS containing 0.5 wt % sodium taurocholic acid and 1-palmitoyl-2-oleyl-sn-glycero-3-phosphocholine (NaTC/POPC, with a 4/1 weight ratio) at pH 6.5 and 290 mOsm/kg (simulating a Model Fasted Duodenal solution) was added to each respective tube. The samples were quickly mixed using a vortex mixer for about 60 seconds. The samples were centrifuged at 13,000 G at 37° C. for 1 minute. The resulting supernatant solution was then sampled and diluted 1:6 (by volume) with methanol and then analyzed by high-performance liquid chromatography (HPLC). The contents of each respective tube were mixed on a vortex mixer and allowed to stand undisturbed at 37° C. until the next sample was taken. Samples were collected at 4, 10, 20, 40, 90, and 1200 minutes.
As a control (C1), a sample of crystalline Drug 1 alone was tested in the same manner so that the concentration of Drug 1 in MFD solution would have been 2000 μg/mL if all of the drug had dissolved.
The concentrations of drug obtained in these samples were used to determine the maximum drug concentration (“MDC90”) and the area under the concentration-versus-time curve (“AUC90”) during the initial 90 minutes.

[2] = glass transition temperature (Tg) of the drug; conditions: for Tg: Table B, unless noted Tg measured at less than 10% RH
Experimental: In a first aspect, the invention comprises a solid composition comprising a plurality of particles. The particles comprise a low-solubility drug and a poloxamer. The drug is in intimate contact with the poloxamer in the particles. Collectively, the drug and poloxamer constitute at least 50 wt % of the particles. At least a substantial portion of the drug in the composition is amorphous. The Tg of the drug is at least 50° C. Unless otherwise noted, as used herein the Tg refers to the Tg measured at less than 10% RH.
Such Tg values may represent that of drug dispersed in the amorphous portions of the poloxamer or the Tg of drug-rich phases or domains. […] The Tg of the drug may be at least about 60° C., at least about 70° C., or even at least about 80° C. The Tg of a drug can be determined using standard analytical techniques well known in the art, including by a dynamic mechanical analyzer (DMA), a dilatometer, a dielectric analyzer, and by differential scanning calorimetry (DSC).

[3] = in vitro dissolution test of Drug 4 compositions in PBS; conditions: for AUC / Drug 4 Concentration: 1000 μg/mL if all dissolved; for Drug 4 Concentration: 37° C.
Experimental: as §1
The solid compositions of Examples 10-13 were evaluated in an in vitro dissolution test as in Examples 1-2, except that the dissolution medium was PBS. The amount of each composition added to the microcentrifuge tube was adjusted so that the concentration of Drug 4 in solution if all of the drug had dissolved was 1000 μg/mL.
The spray-dried compositions of Examples 14-15 were evaluated in an in vitro dissolution test as in Examples 10-13. The amount of each composition added to the microcentrifuge tube was adjusted so that the concentration of Drug 4 in solution if all of the drug had dissolved was […].
This composition was evaluated in an in vitro dissolution test as in Examples 10-13.

Molecule: O=C(N[C@@H](Cc1ccccc1)[C@@H](O)C(=O)N1C[C@@H](O)[C@@H](O)C1)c1cc2cc(Cl)ccc2[nH]1 [Example C1, 5-chloro-1H-indole-2-carboxylic acid [(1S)-benzyl-(2R)-hydroxy-3-((3R,4S)-dihydroxy-pyrrolidin-1-yl-)-3-oxypropyl]amide]
- AUC90 ([1]; Drug 1, MFD, initial 90 minutes): 21,600 min * μg/mL
- MDC90 ([1]; Drug 1, MFD, maximum drug concentration during initial 90 minutes): 255 µg/mL
- AUC ([1]; Drug 1, time 0 min): 0 µg·min/mL
- AUC ([1]; Drug 1, time 4 min): 400 µg·min/mL
- AUC ([1]; Drug 1, time 10 min): 1700 µg·min/mL
- AUC ([1]; Drug 1, time 20 min): 4100 µg·min/mL
- AUC ([1]; Drug 1, time 40 min): 9000 µg·min/mL
- AUC ([1]; Drug 1, time 90 min): 21,600 min * μg/mL
- AUC ([1]; Drug 1, time 1200 min): 299,000 min * μg/mL
- Drug 1 Concentration ([1]; time 0 min): 0 µg/mL
- Drug 1 Concentration ([1]; time 4 min): 204 µg/mL
- Drug 1 Concentration ([1]; time 10 min): 227 µg/mL
- Drug 1 Concentration ([1]; time 20 min): 243 µg/mL
- Drug 1 Concentration ([1]; time 40 min): 250 µg/mL
- Drug 1 Concentration ([1]; time 90 min): 255 µg/mL
- Drug 1 Concentration ([1]; time 1200 min): 244 µg/mL

Molecule: 4-[3-[4-(2-methylimidazol-1-yl) phenylthio] phenyl]-3,4,5,6-tetrahydro-2H-pyran-4-carboxamide hemifumarate
- Tg [2]: 81 °C

Molecule: O=C1Cc2cc(CCN3CCN(c4nsc5ccccc45)CC3)c(Cl)cc2N1 [Ziprasidone]
- Tg [2]: 72 °C

Molecule: CC(C)c1c(C(=O)Nc2ccccc2)c(-c2ccccc2)c(-c2ccc(F)cc2)n1CCC(O)CC(O)CC(=O)[O-].CC(C)c1c(C(=O)Nc2ccccc2)c(-c2ccccc2)c(-c2ccc(F)cc2)n1CCC(O)CC(O)CC(=O)[O-].O.O.O.[Ca+2] (stereo not drawn) [2-(4-fluorophenyl)-beta, delta-dihydroxy-5-(1-methylethyl)-3-phenyl-4-[(phenylamino)carbonyl]-1H-pyrrole-1-heptanoic acid, calcium salt (2:1), trihydrate]
- Tg [2]: 111 °C

Molecule: CCC(CC)Nc1cc(C)nc(Oc2c(C)cc(C)cc2C)c1C.Cl [[3,6-dimethyl-2-(2,4,6-trimethyl-phenoxy)-pyridin-4-yl]-(1-ethyl-propyl)-amine hydrochloride]
- Tg [2]: 87 °C

Molecule: O=C(N[C@@H](Cc1ccccc1)[C@@H](O)C(=O)N1C[C@@H](O)[C@@H](O)C1)c1cc2cc(Cl)ccc2[nH]1 [Drug 1, 5-chloro-1H-indole-2-carboxylic acid [(1S)-benzyl-(2R)-hydroxy-3-((3R,4S)-dihydroxy-pyrrolidin-1-yl-)-3-oxypropyl]amide]
- Tg [2]: 96 °C
- Tg,drug ([2]; at ambient RH): 113 °C

Molecule: O=C(O)c1ccc(C(F)(F)F)cc1-c1ccc2c(c1)OCC(Cc1ccccc1)C2O (single isomer, unassigned; (+)) [(+)-2-(3-benzyl-4hydroxy-chroman-7-yl)-4-trifluoromethyl-benzoic acid]
- Tg [2]: 53 °C

Molecule: Cl.Cl.O=C(O)COCCN1CCN(C(c2ccccc2)c2ccc(Cl)cc2)CC1 (stereo not drawn) [(2(-(4-((4-chlorophenyl)phenylmethyl)-1-piperazinyl)ethoxy)acetic acid, dihrochloride]
- Tg [2]: 112 °C

Molecule: CCOC(=O)N1c2ccc(C(F)(F)F)cc2[C@@H](N(Cc2cc(C(F)(F)F)cc(C(F)(F)F)c2)C(=O)OC)C[C@H]1CC [Control C6, Torcetrapib]
- Cmax90 ([3]; Drug 4, initial 90 minutes): <1000 ng/mL
- AUC90 ([3]; Drug 4, initial 90 minutes, Table 12): < 1470 ng·h/mL
- AUC90 ([3]; Drug 4, initial 90 minutes, Table 15): <88 min-μg/mL
- AUC90 ([3]; Drug 4, initial 90 minutes, Table 18): <1470 ng·h/mL
- AUC ([3]; Drug 4, time 0 min): 0 min-μg/mL
- AUC ([3]; Drug 4, time 4 min): <2 min-μg/mL
- AUC ([3]; Drug 4, time 10 min): <8 min-μg/mL
- AUC ([3]; Drug 4, time 20 min): <18 min-μg/mL
- AUC ([3]; Drug 4, time 40 min): <38 min-μg/mL
- AUC ([3]; Drug 4, time 90 min): <88 min-μg/mL
- AUC ([3]; Drug 4, time 1200 min): <1,200 min-μg/mL
- Drug 4 Concentration ([3]; time 0 min): 0 µg/mL
- Drug 4 Concentration ([3]; time 4 min): <1 µg/mL
- Drug 4 Concentration ([3]; time 10 min): <1 µg/mL
- Drug 4 Concentration ([3]; time 20 min): <1 µg/mL
- Drug 4 Concentration ([3]; time 40 min): <1 µg/mL
- Drug 4 Concentration ([3]; time 90 min): <1 µg/mL
- Drug 4 Concentration ([3]; time 1200 min): <1 µg/mL

Molecule: CON(C)C(=O)C(O)[C@H](Cc1ccccc1)NC(=O)c1cc2cc(Cl)ccc2[nH]1 (stereo in doubt) [[R—(R*,S*)]-5-chloro-N-[2-hydroxy-3-[(methoxymethylamino)-3-oxo-1-(phenylmethyl)propyl]propyl]-1H-indole-2-carboxamide]
- Tg [2]: 80 °C

Molecule: C[C@@H]1CC[C@@]2(OC1)O[C@H]1C[C@H]3[C@@H]4CC[C@H]5C[C@@H](O[C@@H]6O[C@H](CO)[C@@H](O[C@@H]7O[C@H](COC(=O)Nc8ccccc8F)[C@@H](OC(=O)Nc8ccccc8F)[C@H](O)[C@H]7O)[C@H](O)[C@H]6O)CC[C@]5(C)[C@H]4CC(=O)[C@]3(C)[C@H]1[C@@H]2C [3-[(4-O-{4,6-bis(2-flurophenylcarbamoyl)]-β-D-glucopyranolsyl-)β-D-flucopyranosyl]oxy-(3β,5α,25R)-spirostan-12-one]
- Tg [2]: 143 °C

Molecule: O=C(NC(Cc1ccccc1)C(=O)N1CC(O)C1)c1cc2cc(Cl)ccc2[nH]1 (stereo not drawn) [5-chloro-1H-indole-2-carboxylic acid [(1)-benzyl-2-(3-hydroxy-azetidin-1-yl)-2-oxo-ethyl]-amide]
- Tg [2]: 91 °C
